Measurements as given in ChEMBL document CHEMBL5223185, “Squaramide Tethered Clindamycin, Chloroquine, and Mortiamide Hybrids: Design, Synthesis, and Antimalarial Activity” (ACS Med Chem Lett, 2023).
pIC50: −log10 of the molar value. Square brackets hold non-standard residues; d marks the D form. Peptide text beside a SMILES is read from it.

Key:
Plasmodium falciparum [1] = experiment: Antiplasmodial activity against sorbitol-synchronized post ring stage plasmodium falciparum 3D7 assessed as inhibition of parasite growth incubated for 72 to 96 hrs by parasite susceptibility based microplate reader assay; assay type: functional, organism-based
Plasmodium falciparum [2] = experiment: Antiplasmodial activity against sorbitol-synchronized post ring stage chloroquine, mefloquine and pyrimethamine resistant plasmodium falciparum Dd2 assessed as inhibition of parasite growth incubated for 72 to 96 hrs by parasite susceptibility based microplate reader assay; assay type: functional, organism-based
[3] = Hemolytic activity in human RBC assessed as hemolysis at 0.39 to 12.8 uM incubated for 72 hrs by microplate reader assay; assay type: toxicity, cell-based; conditions: erythrocyte, dose 0.39-12.8 µM
[4] = Fold resistance,ratio of IC50 for antiplasmodial activity against chloroquine, mefloquine and pyrimethamine resistant plasmodium falciparum Dd2 to IC50 for antiplasmodial activity against plasmodium falciparum 3D7; assay type: functional

| SMILES | pIC50 (Plasmodium falciparum [1]) | pIC50 (Plasmodium falciparum [2]) | Activity [3] | Ratio [4] |
| --- | --- | --- | --- | --- |
| CCN(CCN)CCCC(C)Nc1ccnc2cc(Cl)ccc12 (configuration not stated) | 7.78 | 6.55 | Non-Toxic | 17.1 |
| CCC[C@@H]1CC(C(=O)N[C@@H](C2O[C@H](SC)[C@H](O)[C@@H](O)[C@H]2O)[C@@H](C)Nc2c(NCCN(CC)CCCC(C)Nc3ccnc4cc(Cl)ccc34)c(=O)c2=O)N(C)C1 (some centres not stated) | 6.89 | 5.99 | Non-Toxic | 7.8 |
| CCC[C@@H]1C[C@@H](C(=O)N[C@@H]([C@H]2O[C@H](SC)[C@H](O)[C@@H](O)[C@H]2O)[C@@H](C)N=[N+]=[N-])N(C)C1 | 7.53 | 7.54 | Non-Toxic | 1 |
| CCN(CCCC(C)Nc1ccnc2cc(Cl)ccc12)CCNc1c(NCCCC[C@H](NC(C)=O)C(=O)OC)c(=O)c1=O (some centres not stated) | 6.65 | 6.17 | Non-Toxic | 3 |
| CCC[C@@H]1C[C@@H](C(=O)N[C@@H]([C@H]2O[C@H](SC)[C@H](O)[C@@H](O)[C@H]2O)[C@H](C)Cl)N(C)C1 [CLINDAMYCIN] | 8.06 | – | – | – |
| CCN(CCCC(C)Nc1ccnc2cc(Cl)ccc12)CCN=[N+]=[N-] (configuration not stated) | 8.55 | 7.74 | Non-Toxic | 6.5 |
| CCOc1c(NCCN(CC)CCCC(C)Nc2ccnc3cc(Cl)ccc23)c(=O)c1=O (configuration not stated) | 7.20 | 5.98 | Non-Toxic | 16.6 |
| CCN(CCCC(C)Nc1ccnc2cc(Cl)ccc12)CCNc1c(NCCN(CC)CCCC(C)Nc2ccnc3cc(Cl)ccc23)c(=O)c1=O (configuration not stated) | 7.50 | 7.09 | Non-Toxic | 2.6 |
| CC[C@@H](C)[C@H]1NC(=O)[C@@H](C)NC(=O)[C@H](Cc2ccccc2)NC(=O)[C@@H](CC(C)C)NC(=O)[C@@H](C(C)C)NC(=O)[C@H](Cc2ccccc2)NC(=O)[C@@H]([C@H](C)CC)NC1=O (cyclo(F[dA][dI][dI]F[dV][dL])) | 5.88 | 6.03 | – | 0.7 |
